Test results published in patent publication US9920061B2, “Imidazo[1,5-A]pyrimidinyl carboxamide compounds and their use in the treatment of medical disorders” (Lysosomal Therapeutics Inc., priority 2016, dated 2018).
Values after ≈ are worked out from the molar mass of the structure shown. Like-named read-outs stand apart in the source and are kept apart here.

Experiments:
[1] = molecular target: T1, glucocerebrosidase (Gcase) (Homo sapiens, UniProt P04062); experiment: Glucocerebrosidase (Gcase) activation assay, 4-methylumbelliferyl-beta-D-glucopyranoside substrate, with saposin C; type: biochemical
T1 sequence (P04062 40-536): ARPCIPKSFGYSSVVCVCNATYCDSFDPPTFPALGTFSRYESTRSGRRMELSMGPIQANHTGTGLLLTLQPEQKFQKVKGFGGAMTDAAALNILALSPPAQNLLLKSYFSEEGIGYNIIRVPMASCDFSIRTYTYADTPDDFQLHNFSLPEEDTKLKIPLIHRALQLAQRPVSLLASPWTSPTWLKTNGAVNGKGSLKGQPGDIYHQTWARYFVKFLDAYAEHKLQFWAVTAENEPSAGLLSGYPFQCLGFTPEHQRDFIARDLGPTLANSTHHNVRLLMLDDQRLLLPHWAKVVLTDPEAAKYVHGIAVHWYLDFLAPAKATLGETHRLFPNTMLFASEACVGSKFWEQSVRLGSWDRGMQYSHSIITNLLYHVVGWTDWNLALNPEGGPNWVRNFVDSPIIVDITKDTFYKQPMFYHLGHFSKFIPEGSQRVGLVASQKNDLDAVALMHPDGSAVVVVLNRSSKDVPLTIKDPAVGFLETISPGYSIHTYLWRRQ
Method in brief: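 Compounds tested at 1.0 and 0.1 μM, then in 8-point 3-fold curves, were pre-incubated 30 min at room temperature with 10 nM GCase plus 100 nM saposin C in PS/triton micelles, pH 4.7. Reaction with substrate (2 mM in micelles before mixing) ran 15 min; stopped at pH 12.5, read at ex 365/em 440 nm.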

[2] = Compound solubility in water; type: physicochemical
[3] = test compound at 0.1 μM, read-out: Percent Gcase Activation, 0.1 μM Test Compound
[4] = test compound at 1.0 μM, read-out: Percent Gcase Activation, 1 μM Test Compound
[5] = 0.1 μM test compound, read-out: Percent Gcase Activation 0.1 μM Test Compound
[6] = 1 μM test compound, read-out: Percent Gcase Activation 1 μM Test Compound

SMILES	activation at 0.1 µM [1, 3] [%]	activation at 1 µM [1, 4] [%]	solubility ([2]; in water) [µg/mL]	activation at 0.1 µM [1, 5] [%]	activation at 1 µM [1, 6] [%]	solubility [2] [µg/mL]
Cc1cc(C#N)c(-c2cc(C)n3cnc(C(=O)NC(C4CC4)C(F)(F)F)c3n2)o1 (stereo not drawn) [IV-92]	> 20	> 60	0.3 (≈ 0.744 µM)			
Cc1cc(N2CCC(F)(F)CC2)nc2c(C(=O)N[C@@H](C)C3CC3)ncn12 [III-115]				< 10	< 30	20.5 (≈ 56.4 µM)
Cc1cc(-c2ccccn2)nc2c(C(=O)N[C@@H](C)c3ccccc3F)ncn12 [III-29]				10 to 20	> 60	0.9 (≈ 2.4 µM)
CCNc1cc(C)n2cnc(C(=O)NC(c3ccc(F)cc3)C(F)(F)F)c2n1 (stereo not drawn) [III-90]				> 20	> 60	2.2 (≈ 5.56 µM)
COc1ccccc1-c1cc(C)n2cnc(C(=O)NC(C)C3CC3)c2n1 (stereo not drawn) [III-52]				> 20	> 60	11.6 (≈ 33.1 µM)
CCc1cc(-c2cccc(OC)n2)nc2c(C(=O)NC(C3CC3)C(F)(F)F)ncn12 (stereo not drawn) [III-149]				> 20	> 60	0.7 (≈ 1.67 µM)
Cc1cc(-c2nccs2)nc2c(C(=O)NC(C3CC3)C(F)(F)F)ncn12 (stereo not drawn) [IV-50]	10 to 20	> 60	1.5 (≈ 3.93 µM)			
C#Cc1cccc(C2(NC(=O)c3ncn4c(C)cc(C)nc34)CC2)c1 [III-2]				< 10	30 to 60	19.7 (≈ 59.6 µM)
Cc1cc(Oc2ccncc2)nc2c(C(=O)N[C@@H](C)C3CC3)ncn12 [III-123]				< 10	< 30	29.6 (≈ 87.7 µM)
CCc1cc(-c2ccc(F)cc2)nc2c(C(=O)N[C@@H](C)C3CC3)ncn12 [III-33]				> 20	> 60	10.5 (≈ 29.8 µM)
Cc1cc(-c2ccc3ocnc3c2)nc2c(C(=O)N[C@@H](C)C3CC3)ncn12 [III-130]				> 20	> 60	7.7 (≈ 21.3 µM)
Cc1cc(-c2cnsc2)nc2c(C(=O)NC(C)(C)C3CC3)ncn12 [III-59]				10 to 20	> 60	2.1 (≈ 6.15 µM)
Cc1cc(-c2ccc(F)cc2)nc2c(C(=O)NC(C)(C)C)ncn12 [III-88]				< 10	> 60	2 (≈ 6.13 µM)
C#CC(NC(=O)c1ncn2c(C)cc(-c3ccccc3C#N)nc12)C(F)(F)F (stereo not drawn) [IV-23]	10 to 20	> 60	0.6 (≈ 1.57 µM)			
Cc1cc(-c2cc(F)ccc2F)nc2c(C(=O)N[C@@H](C)C3CC3)ncn12 [III-112]				> 20	> 60	5.5 (≈ 15.4 µM)
Cc1cc(-c2ccc(Cl)nc2)nc2c(C(=O)NC(C)(C)C3CC3)ncn12 [III-76]				10 to 20	> 60	1.1 (≈ 2.97 µM)
Cc1cc(C)n2cnc(C(=O)N[C@@H](C)C3CC3)c2n1 [III-6]				< 10	< 30	24.4 (≈ 94.5 µM)
Cc1cc(-c2ccon2)nc2c(C(=O)NC(C3CC3)C(F)(F)F)ncn12 (stereo not drawn) [IV-9]	< 10	30 to 60	3.9 (≈ 10.7 µM)			
Cc1cc(-c2cccc(F)c2)nc2c(C(=O)NC(C)(C)C3CC3)ncn12 [III-109]				> 20	> 60	1.1 (≈ 3.12 µM)
Cc1cc(-c2cc(F)cc(C#N)c2)nc2c(C(=O)NC(C)(C)C)ncn12 [IV-111]	10 to 20	> 60	0.9 (≈ 2.56 µM)			
COc1cc(-c2cc(C)n3cnc(C(=O)NC(C4CC4)C(F)(F)F)c3n2)ccc1F (stereo not drawn) [III-171]				> 20	> 60	0.6 (≈ 1.42 µM)

SMILES	activation at 0.1 µM [1, 3] [%]	activation at 1 µM [1, 4] [%]	solubility ([2]; in water) [µg/mL]	activation at 0.1 µM [1, 5] [%]	activation at 1 µM [1, 6] [%]	solubility [2] [µg/mL]
Cc1cc(-c2cccc3c2OCO3)nc2c(C(=O)N[C@H](C)C3CC3)ncn12 [IV-31]	10 to 20	> 60	1.4 (≈ 3.84 µM)			
Cc1cc(-c2cccc(F)c2)nc2c(C(=O)NC(C3CC3)C3CC3)ncn12 [III-133]				> 20	> 60	1.5 (≈ 4.12 µM)
Cc1cc(OC2CCC2)nc2c(C(=O)NC(C3CC3)C(F)(F)F)ncn12 (stereo not drawn) [III-176]				> 20	> 60	5.5 (≈ 14.9 µM)
Cc1cc(NC2CC2)nc2c(C(=O)NC(c3ccc(F)cc3)C(F)(F)F)ncn12 (stereo not drawn) [III-91]				> 20	> 60	0.8 (≈ 1.96 µM)
Cc1cc(-c2ccc3ocnc3c2)nc2c(C(=O)NC(C3CC3)C(F)(F)F)ncn12 (stereo not drawn) [IV-72]	> 20	> 60	1.1 (≈ 2.65 µM)			
Cc1cc(-c2cscc2C#N)nc2c(C(=O)NC(C3CC3)C(F)(F)F)ncn12 (stereo not drawn) [IV-32]	> 20	> 60	0.6 (≈ 1.48 µM)			
Cc1cc(Oc2cccnc2)nc2c(C(=O)N[C@@H](C)C3CC3)ncn12 [III-122]				< 10	< 30	32.8 (≈ 97.2 µM)
Cc1cc(N2CCC(F)(F)C2)nc2c(C(=O)NC(C3CC3)C(F)(F)F)ncn12 (stereo not drawn) [III-139]				> 20	> 60	1.8 (≈ 4.46 µM)
Cc1cc(-c2ncccn2)nc2c(C(=O)NC(C)(C)C3CC3)ncn12 [III-95]				< 10	< 30	6.4 (≈ 19 µM)
C#CC(C)(C)NC(=O)c1ncn2c(C)cc(-c3cccc4c3OCO4)nc12 [IV-27]	< 10	< 30	1.1 (≈ 3.04 µM)			
CCCCO[C@H]1C[C@H]2CC[C@@H](C1)[C@H]2NC(=O)c1ncn2c(COC)cc(C)nc12 [IV-2]	> 20	> 60	27.5 (≈ 68.7 µM)			
Cc1cc(-c2ccc3c(c2)OCO3)nc2c(C(=O)NC(C3CC3)C(F)(F)F)ncn12 (stereo not drawn) [IV-75]	> 20	> 60	0.5 (≈ 1.2 µM)			
Cc1cc(-c2ccc3scnc3c2)nc2c(C(=O)NC(C3CC3)C(F)(F)F)ncn12 (stereo not drawn) [IV-49]	> 20	> 60	0.6 (≈ 1.39 µM)			
COc1cccc(-c2cc(C)n3cnc(C(=O)NC(C4CC4)C(F)(F)F)c3n2)n1 (stereo not drawn) [III-147]				> 20	> 60	0.5 (≈ 1.23 µM)
Cc1cc(N2CCC(F)(F)CC2)nc2c(C(=O)NC(C)(C)C3CC3)ncn12 [III-118]				< 10	30 to 60	9.7 (≈ 25.7 µM)
CCc1cc(Oc2ccc(F)cc2)nc2c(C(=O)N[C@@H](C)C3CC3)ncn12 [III-166]				< 10	30 to 60	10.8 (≈ 29.3 µM)
Cc1cc(-n2ccnc2)nc2c(C(=O)NC(C)(C)C3CC3)ncn12 [III-67]				< 10	< 30	23.4 (≈ 72.1 µM)
CO[C@H]1CC[C@H](C(C)(C)NC(=O)c2ncn3c(C)cc(-c4cccnc4)nc23)CC1 [III-73]				< 10	< 30	19.3 (≈ 47.4 µM)
Cc1cc(C)n2cnc(C(=O)N[C@@H](C)C3CC4(CCC4)C3)c2n1 [III-102]				< 10	> 60	12.1 (≈ 38.7 µM)
Cc1cc(-c2cccc(F)c2)nc2c(C(=O)NC(C)C3CC3)ncn12 (stereo not drawn) [III-50]				> 20	> 60	33.3 (≈ 98.4 µM)
